From US20120301895A1, “METHODS OF MODULATING BINDING OF SON OF SEVENLESS TO PHOSPHATIDIC ACID AND IDENTIFYING COMPOUNDS THAT MODULATE SUCH BINDING” (THE RESEARCH FOUNDATION OF STATE UNIVERSITY OF NEW YORK, priority 2007, published 2012)

Key:
T24 cells = experiment: Cell viability and PARP cleavage in T24 cells; type: cell-based, human; conditions: honokiol 20 μM, 0.5% serum
Procedure: (§1) In FIG. 17A, T24 and Calu1 cells (obtained from the American Type Culture Collection) were plated in DMEM containing 10% serum for 48 hr and then shifted to either 10% serum or 0.5% serum overnight as indicated. Honokiol (20 μM) or control ethanol was then added for 4 hr as indicated. [^3H]-Myristate was added with the honokiol. After 4 hr, BtOH (0.7%) was added for 20 min, at which time the cells were harvested and the level of phosphatidyl-BtOH (P-Bt) was determined as in FIGS. 12A-C. The experiments shown are representative of at least two independent experiments. In FIG. 17B, T24 and Calu-1 cells were plated in DMEM with 10% serum for 48 hr then changed to DMEM containing either 10% or 0.5% serum overnight as indicated. Honokiol (20 μM) or control ethanol was then added either at the time of changing media (24 hr), or 4 hr before harvesting as in FIGS. 14A-E, at which time the cells were examined for cell viability or PARD cleavage. […]
(§2) Cell viability was determined by trypan blue exclusion. […] After 10 min, trypan blue uptake (dead cells) was determined by counting on a hemocytometer. Apoptosis was evaluated by examination of cleavage of the caspase 3 substrate PARP as described previously (Chen et al., “Alternative Phospholipase D/mTOR Survival Signal in Human Breast Cancer Cells,” Oncogene 24:672-9 (2005), which is hereby incorporated by reference in its entirety). […]

Calu-1 cells = experiment: Cell viability and PARP cleavage in Calu-1 cells; type: cell-based, human; conditions: honokiol 20 μM, 0.5% serum
Procedure: as §1, §2

C=CCc1ccc(O)c(-c2ccc(O)c(CC=C)c2)c1 [honokiol, Honokiol]
induced: PARP cleavage (T24 cells) | cell death (T24 cells) | PARP cleavage (Calu-1 cells) | cell death (Calu-1 cells)
